In patent publication US10723778B2, “Variants of adrenomedullin and calcitonin gene-related peptide and methods of use” (The Board of Regents of the University of Oklahoma, priority 2015, dated 2020):
Like-named read-outs stand apart in the source and are kept apart here. Where no end group is shown, it is not given here.

Columns and labels:
[1] = target: T1, RAMP1-CLR ECD (CGRP); purified MBP-RAMP1 ECD-(GS)5-CLR ECD-H6 fusion protein (Homo sapiens, UniProt O60894+Q16602); assay: Fluorescence polarization (FP) peptide binding competition assay, CGRP receptor ECD complex; conditions: for Receptor Selectivity, fold for CGRP: CGRP (RAMP1-CLR ECD) over AM1 (RAMP2-CLR ECD); for Receptor Selectivity (in words): CGRP vs AM1 receptor ECD complexes
T1 construct: MBP-hRAMP1.24-111-(Gly-Ser)5-hCLR.29-144-H6; made in house; host or cells: E. coli
Protocol: (§1) Fluorescence polarization peptide binding assay. […] The reactions (50 μL) were incubated for 2 hours at room temperature to reach equilibrium, and the anisotropy was measured in black half-area 96-well plates using a BMG LABTECH's POLARstar® Omega plate reader (Ortenberg, Germany). The reaction buffer was 50 mM HEPES, pH 7.5, 150 mM NaCl, 0.5 mg/ml fatty acid-free BSA, 0.5 mM EDTA, 0.5 mM maltose. Ki values were calculated using nonlinear regression fitting of the competition curves to the exact analytical equations of Roehrl et al. (Biochemistry (2004) 43:16056-66) using GraphPad Prism 5.0 (GraphPad Software, San Diego Calif.).
(§2) The ability of the indicated peptides to displace a FITC-Ahx-AM(37-52)NH2 [S45W, Q50W] probe (7 nM) from purified MBP-RAMP1 ECD-(GS)5-CLR ECD-H6 fusion protein (15 nM) was assessed by fluorescence polarization (anisotropy). The reactions were incubated for 2 hours at room temperature to reach equilibrium, and the anisotropy was measured in black half-area 96-well plates using a BMG LABTECH's POLARstar® Omega plate reader (Ortenberg, Germany). The reaction buffer was 50 mM HEPES, pH 7.5, 150 mM NaCl, 0.5 mg/ml fatty acid-free BSA, 0.5 mM EDTA, 0.5 mM maltose. KI values were calculated using nonlinear regression fitting of the competition curves to the exact analytical equations of Roehrl et al. (Biochemistry (2004) 43:16056-66) using GraphPad Prism 5.0 (GraphPad Software, San Diego Calif.).
as §2, with “Single representative experiments conducted with duplicate samples are shown. Error bars are S.E.M. The ability” for “The ability”, “displace a FITC-Ahx-AM(37-52)NH2[S45W, Q50W] probe” for “displace a FITC-Ahx-AM(37-52)NH2 [S45W, Q50W] probe”
A fluorescence polarization/anisotropy (FP) peptide-binding assay was developed using N-terminally FITC-labeled AM(37-52) S45W/Q50W as the probe, hereafter “FITC-AM W/W.” The probe was custom synthesized and HPLC-purified by RS Synthesis. The large size difference between the MBP-RAMP ECD-CLR ECD fusion proteins (˜65 kDa) and the probe (˜2.5 kDa) ensures a significant anisotropy difference between bound and free states of the probe. […] Kd values for the probe at each of the tethered ECD fusion proteins were determined in equilibrium saturation binding experiments (data not shown), and KI values were determined for unlabeled peptides in equilibrium competition experiments (Table 1; FIGS. 2-5). The data were analyzed according to exact analytical equations using non-linear regression curve fitting in GraphPad Prism 5.0 (GraphPad Software) via user-defined equations.

[2] = target: T2, RAMP2-CLR ECD (AM1); purified MBP-RAMP2 ECD [L106R]-(GS)5-CLR ECD-H6 fusion protein (Homo sapiens, UniProt O60895+Q16602, L106R); assay: Fluorescence polarization (FP) peptide binding competition assay, AM1 receptor ECD complex; conditions: FP competition, FITC-AM W/W probe 7 nM, fusion protein 110 nM
T2 construct: MBP-hRAMP2.55-140 [L106R]-(Gly-Ser-Ala)3-hCLR.29-144-H6; made in house; host or cells: E. coli
Protocol: as §1
FIG. 3(A-K) depicts binding of (A) AM-based peptide AM(37-52)NH2, and variant peptide AM(37-52)NH2[S45W, Q50W]; (B) AM-based peptide AM(37-52)NH2, variant peptide AM(37-52)NH2[Q50F], and variant peptide AM(37-52)NH2[Q50W]; (C) variant peptides AM(37-52)NH2[K46L], AM(37-52)NH2[K46M], and AM(37-52)NH2[D39F]; (D) variant peptides AM(37-52)NH2[D39F, K46L, Q50W], AM(37-52)NH2[D39F, K46L, Q50W, Y52F], and AM(37-52)NH2[S45W, K46L, Q50W, Y52F]; (E) variant peptides AM(37-52)NH2[[D39K], AM(37-52)NH2[K46L, Q50W], and AM(37-52)NH2[K46L, Q50W, Y52F]; (F) variant peptides AM(37-52)NH2[S45W, K46M, Q50W, Y52F], and AM(37-52)NH2[S45W, K46W, Q50W, Y52F]; (G) variant peptides AM(37-52)NH2[S45T, K46W, Q50W], AM(37-52)NH2[S45T, K46L, Q50W], and AM(37-52)NH2[S45W, K46L, S48G, Q50W, Y52F]; (H) variant peptide AM(37-52)NH2[S45W, K46L, I47M, Q50W, Y52F]; (I) variant peptides AM(37-52)NH2[S45R, K46W, Q50W], and AM(37-52)NH2[S45R, K46L, Q50W]; (J) variant peptides AM(37-52)NH2[S45R, K46W, S48G, Q50W], AM(37-52)NH2[S45R, K46L, S48G, Q50W], and AM(37-52)NH2[S45R, K46W, I47L, S48G, Q50W]; and (K) variant peptides AM(37-52)NH2[D39W, Q50W], and AM(37-52)NH2[D37V, S45W, K46L, Q50W, Y52F], to the purified AM1 receptor extracellular domain complex. Single representative experiments conducted with duplicate samples are shown. […] The reactions were incubated for 2 hours at room temperature to reach equilibrium, and the anisotropy was measured in black half-area 96-well plates using a BMG LABTECH's POLARstar® Omega plate reader (Ortenberg, Germany). The reaction buffer was 50 mM HEPES, pH 7.5, 150 mM NaCl, 0.5 mg/ml fatty acid-free BSA, 0.5 mM EDTA, 0.5 mM maltose. KI values were calculated using nonlinear regression fitting of the competition curves to the exact analytical equations of Roehrl et al. (Biochemistry (2004) 43:16056-66) using GraphPad Prism 5.0 (GraphPad Software, San Diego Calif.).
as §1, with “Single representative experiments conducted with duplicate samples are shown.” for “Fluorescence polarization peptide binding assay.”, “reactions” for “reactions (50 μL)”, “KI” for “Ki”
A fluorescence polarization/anisotropy (FP) peptide-binding assay was developed using N-terminally FITC-labeled AM(37-52) S45W/Q50W as the probe, hereafter “FITC-AM W/W.” The probe was custom synthesized and HPLC-purified by RS Synthesis. The large size difference between the MBP-RAMP ECD-CLR ECD fusion proteins (˜65 kDa) and the probe (˜2.5 kDa) ensures a significant anisotropy difference between bound and free states of the probe. […] Kd values for the probe at each of the tethered ECD fusion proteins were determined in equilibrium saturation binding experiments (data not shown), and KI values were determined for unlabeled peptides in equilibrium competition experiments (Table 1; FIGS. 2-5).

[3] = RAMP1-CLR ECD (CGRP) KI (nM), FP competition, FITC-AM W/W probe 7 nM, fusion protein 15 nM
[4] = read-out: RAMP2-CLR ECD (AM1) KI
[5] = FP competition, FITC-AM W/W probe 7 nM, fusion protein 15 nM

| Substance | Receptor Selectivity, fold for CGRP ([1]; FP assay) | Ki [1, 3] [nM] | Receptor Selectivity (in words) ([1]; FP assay) | RAMP2-CLR ECD (AM1) KI (nM) [2] | other results |
| --- | --- | --- | --- | --- | --- |
| DKDNVAPRTWISPWGY-NH2 [S45T/K46W/Q50W] | 28-fold for CGRP | 439 |  |  |  |
| FVPTDVGPWSY-NH2 [N31D/S34P/K35W/A36S/F37Y] | 245-fold for CGRP | 1.32 |  |  | Ki [2, 4]: 0.324 µM |
| FVPTDVGPFSF-NH2 [N31D/S34P/K35F/A36S] |  | 2.95 | CGRP over AM1 |  | Ki [2, 4]: > 10 µM |
| D39F: AM(37-52)NH2 scaffold variant peptide with D39F substitution (DKFNVAPRSKISPQGY-NH2) [Peptide D39F] |  |  |  | No binding | RAMP1-CLR ECD (CGRP) KI (nM) [1, 5]: No binding |
| DKDNVAPRWKISPWGY-NH2 [S45W/Q50W] |  | 44.7 | Non-selective |  |  |
| DKDNVAPRSMISPQGY [Peptide K46M] |  |  |  | No binding | RAMP1-CLR ECD (CGRP) KI (nM) [1, 5]: No binding |
| FVPTDTGPWGY-NH2 [N31D/V32T/S34P/K35W/A36G/F37Y] | 821-fold for CGRP | 17.6 |  |  |  |
| DKKNVAPRSKISPQGY-NH2 [Peptide D39K] |  |  | AM1 |  | RAMP1-CLR ECD (CGRP) KI (nM) [1, 5]: No binding |
| DKDNVAPRSLISPWGY-NH2 [K46L/Q50W] | 23-fold for CGRP | 70.8 |  |  |  |
| DKFNVAPRSLISPWGY-NH2 [D39F/K46L/Q50W] | 22-fold for CGRP | 82.2 |  |  | Ki ([1]; RAMP1-CLR ECD (CGRP) pKI, FP competition, FITC-AM W/W probe 7 nM, fusion protein 15 nM, mean ± S.E.M of at least 3 independent experiments): 79.4 nM |
| DKDNVAPRSLISPWGF-NH2 [K46L/Q50W/Y52F] | 2820-fold for CGRP | 31.6 |  |  |  |
| DKDNVAPRWMISPWGF-NH2 [S45W/K46M/Q50W/Y52F] | 977-fold for CGRP | 7.94 |  |  |  |
| FVPTDVGPWAF-NH2 [N31D/S34P/K35W] |  | 8.13 | CGRP | No binding |  |
| DKDNVAPRWLMSPWGF-NH2 [S45W/K46L/I47M/Q50W/Y52F] |  | 0.78 | CGRP (very selective) | No binding | Ki ([1]; KI for the CGRP receptor ECD complex, FP assay): ~0.78 nM; RAMP2-CLR ECD (AM1) KI (nM) ([2]; listed as AM(37-52)NH2[S45W, K46L, I47M, Q50W, Y52F]): no binding |
| FVPTDTGPWGF-NH2 [N31D/V32T/S34P/K35W/A36G] |  | 6.85 | CGRP | No binding |  |
| DKFNVAPRSLISPWGF-NH2 [D39F/K46L/Q50W/Y52F] | 1213-fold for CGRP | 25 |  |  | Ki ([2]; mean ± S.E.M, read-out: RAMP2-CLR ECD (AM1) pKI (converted)): 28.2 µM |
| DKDNVAPRSLISPQGY [Peptide K46L] |  |  |  | No binding | RAMP1-CLR ECD (CGRP) KI (nM) [1, 5]: No binding |
| FVPTDTGPWSF-NH2 [N31D/V32T/S34P/K35W/A36S] | ≥2754-fold for CGRP | < 1 |  |  | KI for the CGRP receptor ECD complex ([1]; FP assay): well into the pM range |
| DKDNVAPRTLISPWGY-NH2 [S45T/K46L/Q50W] | 24-fold for CGRP | 65.6 |  |  |  |
| DKDNVAPRWWISPWGF-NH2 [S45W/K46W/Q50W/Y52F] | 692-fold for CGRP | 24 |  |  |  |
